PubChem BioAssay (NCI)
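Method: 48-hour compound exposure of cells in 96-well plates, five concentrations, linear interpolation of endpoints. At the GI50, growth is halved. TGI: total growth inhibition.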

Legend:
Assay in all cases: DTP human tumour cell line panel, 48 h
CCRF-CEM leukemia = tested on: CCRF-CEM leukemia
HCT-15 colon = tested on: HCT-15 colon
HL-60(TB) leukemia = tested on: HL-60(TB) leukemia
IGROV1 ovarian = tested on: IGROV1 ovarian
LOX IMVI melanoma = tested on: LOX IMVI melanoma
NCI-H460 lung = tested on: NCI-H460 lung
OVCAR-5 ovarian = tested on: OVCAR-5 ovarian
SF-295 CNS = tested on: SF-295 CNS
SNB-75 CNS = tested on: SNB-75 CNS
UACC-62 melanoma = tested on: UACC-62 melanoma

## CC(C)(C)[Si](C)(C)OCC1OC(n2cnc3c(N)ncnc32)CC1O (centres undefined)
CCRF-CEM leukemia
  TGI: > 100 µM
HCT-15 colon
  TGI: > 100 µM
HL-60(TB) leukemia
  TGI: > 100 µM
IGROV1 ovarian
  TGI: > 100 µM
LOX IMVI melanoma
  TGI: > 100 µM
NCI-H460 lung
  TGI: > 100 µM
OVCAR-5 ovarian
  TGI: > 100 µM
SF-295 CNS
  TGI: > 100 µM
SNB-75 CNS
  TGI: > 100 µM
UACC-62 melanoma
  TGI: > 100 µM

## c1coc(CNc2ncnc3[nH]ncc23)c1
CCRF-CEM leukemia
  TGI: > 100 µM
HCT-15 colon
  TGI: > 100 µM
HL-60(TB) leukemia
  TGI: > 100 µM
IGROV1 ovarian
  TGI: > 100 µM
LOX IMVI melanoma
  TGI: > 100 µM
NCI-H460 lung
  TGI: > 100 µM
OVCAR-5 ovarian
  TGI: > 100 µM
SF-295 CNS
  TGI: > 100 µM
SNB-75 CNS
  TGI: > 100 µM
UACC-62 melanoma
  TGI: > 100 µM

## O=C1NC2=C(CCCC/C2=N\O)C12CCCCC2
HCT-15 colon
  TGI: > 100 µM
HL-60(TB) leukemia
  TGI: > 100 µM
IGROV1 ovarian
  TGI: > 100 µM
LOX IMVI melanoma
  TGI: > 100 µM
NCI-H460 lung
  TGI: > 100 µM
OVCAR-5 ovarian
  TGI: > 100 µM
SF-295 CNS
  TGI: > 100 µM
SNB-75 CNS
  TGI: > 100 µM
UACC-62 melanoma
  TGI: > 100 µM

## Brc1ccc(C2CC(c3cccc4ccccc34)=Nc3ccccc3S2)cc1 (centres undefined)
CCRF-CEM leukemia
  TGI: 81.6 µM
HCT-15 colon
  TGI: > 100 µM
HL-60(TB) leukemia
  TGI: > 100 µM
IGROV1 ovarian
  TGI: > 100 µM
LOX IMVI melanoma
  TGI: > 100 µM
NCI-H460 lung
  TGI: > 100 µM
OVCAR-5 ovarian
  TGI: > 100 µM
SF-295 CNS
  TGI: > 100 µM
SNB-75 CNS
  TGI: > 100 µM
UACC-62 melanoma
  TGI: > 100 µM

## O=C1CSC(=S)N1
CCRF-CEM leukemia
  TGI: > 100 µM
HCT-15 colon
  TGI: > 100 µM
HL-60(TB) leukemia
  TGI: > 100 µM
IGROV1 ovarian
  TGI: > 100 µM
LOX IMVI melanoma
  TGI: > 100 µM
NCI-H460 lung
  TGI: > 100 µM
OVCAR-5 ovarian
  TGI: > 100 µM
SF-295 CNS
  TGI: > 100 µM
SNB-75 CNS
  TGI: > 100 µM

## CC(=O)c1ccc2c(c1)c1c(C)c3c[n+](C)ccc3c(C)c1n2C
CCRF-CEM leukemia
  TGI: > 46.3 µM
HCT-15 colon
  TGI: > 100 µM
HL-60(TB) leukemia
  TGI: > 68.6 µM
IGROV1 ovarian
  TGI: > 100 µM
LOX IMVI melanoma
  TGI: 49.4 µM
NCI-H460 lung
  TGI: 15.1 µM
OVCAR-5 ovarian
  TGI: > 100 µM
SF-295 CNS
  TGI: 10.3 µM
SNB-75 CNS
  TGI: 57.1 µM
UACC-62 melanoma
  TGI: 8.23 µM

## CCOC(=O)NC(Nc1ncccn1)(C(=O)OCC)C(F)(F)F (centres undefined)
CCRF-CEM leukemia
  TGI: > 100 µM
HCT-15 colon
  TGI: > 100 µM
HL-60(TB) leukemia
  TGI: > 100 µM
IGROV1 ovarian
  TGI: > 100 µM
LOX IMVI melanoma
  TGI: > 100 µM
NCI-H460 lung
  TGI: > 100 µM
OVCAR-5 ovarian
  TGI: > 100 µM
SF-295 CNS
  TGI: > 100 µM
SNB-75 CNS
  TGI: > 100 µM
UACC-62 melanoma
  TGI: > 100 µM

## N#CN=[N+]([O-])c1ccc(C(=O)O)cc1
CCRF-CEM leukemia
  TGI: 51.9 µM
HCT-15 colon
  TGI: 34.1 µM
IGROV1 ovarian
  TGI: > 100 µM
NCI-H460 lung
  TGI: > 100 µM
OVCAR-5 ovarian
  TGI: 34.7 µM
SF-295 CNS
  TGI: > 100 µM
SNB-75 CNS
  TGI: 38.9 µM
UACC-62 melanoma
  TGI: 31.4 µM

## Cc1cc(C)n(-c2nsc3ccccc23)n1
CCRF-CEM leukemia
  TGI: > 100 µM
HCT-15 colon
  TGI: > 100 µM
HL-60(TB) leukemia
  TGI: > 100 µM
IGROV1 ovarian
  TGI: > 100 µM
LOX IMVI melanoma
  TGI: > 100 µM
NCI-H460 lung
  TGI: > 100 µM
OVCAR-5 ovarian
  TGI: > 100 µM
SNB-75 CNS
  TGI: 98.3 µM
UACC-62 melanoma
  TGI: > 100 µM

## Cc1ccc2c(c1)C(=O)N(N(C)C)CC(=O)N2
CCRF-CEM leukemia
  TGI: > 100 µM
HCT-15 colon
  TGI: > 100 µM
HL-60(TB) leukemia
  TGI: > 100 µM
IGROV1 ovarian
  TGI: > 100 µM
LOX IMVI melanoma
  TGI: > 100 µM
NCI-H460 lung
  TGI: > 100 µM
OVCAR-5 ovarian
  TGI: > 100 µM
SF-295 CNS
  TGI: > 100 µM
SNB-75 CNS
  TGI: > 100 µM
UACC-62 melanoma
  TGI: > 100 µM

## Fc1ccc(C2CC(c3cccc(Nc4ccncc4)c3)=NN2c2ccc(Cl)cc2)cc1 (centres undefined)
CCRF-CEM leukemia
  GI50: 3.12 µM
  TGI: 9.87 µM
HCT-15 colon
  GI50: 1.91 µM
  TGI: 3.82 µM
HL-60(TB) leukemia
  GI50: 1.95 µM
  TGI: 4.22 µM
IGROV1 ovarian
  GI50: 1.78 µM
  TGI: 3.37 µM
LOX IMVI melanoma
  GI50: 1.69 µM
  TGI: 3.06 µM
NCI-H460 lung
  GI50: 1.79 µM
  TGI: 3.35 µM
OVCAR-5 ovarian
  GI50: 1.81 µM
  TGI: 4.05 µM
SF-295 CNS
  GI50: 1.8 µM
  TGI: 3.23 µM
SNB-75 CNS
  GI50: 1.25 µM
  TGI: 2.8 µM
UACC-62 melanoma
  GI50: 1.73 µM
  TGI: 3.19 µM

## CSc1nc(NC2OCC(O)C(O)C2O)c(N)c(=O)[nH]1 (centres undefined)
CCRF-CEM leukemia
  TGI: > 100 µM
HCT-15 colon
  TGI: > 100 µM
HL-60(TB) leukemia
  TGI: > 100 µM
IGROV1 ovarian
  TGI: > 100 µM
LOX IMVI melanoma
  TGI: > 100 µM
NCI-H460 lung
  TGI: > 100 µM
OVCAR-5 ovarian
  TGI: > 100 µM
SF-295 CNS
  TGI: > 100 µM
SNB-75 CNS
  TGI: > 100 µM
UACC-62 melanoma
  TGI: > 100 µM

## Cc1cc2c(cc1C)OC(=O)CC2
CCRF-CEM leukemia
  TGI: > 100 µM
HL-60(TB) leukemia
  TGI: > 100 µM
IGROV1 ovarian
  TGI: > 100 µM
LOX IMVI melanoma
  TGI: > 100 µM
NCI-H460 lung
  TGI: > 100 µM
OVCAR-5 ovarian
  TGI: > 100 µM
SF-295 CNS
  TGI: > 100 µM
SNB-75 CNS
  TGI: > 100 µM
UACC-62 melanoma
  TGI: > 100 µM
